Assay results reported in patent US10765647B2, “Composition for treating diabetes, containing extract of yukmijihwangtang” (COMPREHENSIVE AND INTEGRATIVE MEDICINE INSTITUTE, priority 2013, dated 2020).

Experiments:
STZ-induced diabetes rat [1] = test: STZ-induced diabetes rats: body weight and body weight gain; format: in vivo, Sprague-Dawley (SD) rats; settings: vs STZ control, YMJHT 400 mg/kg
Description: (§1) As the laboratory animals, Sprague-Dawley (SD), Slc:SD rats (6-week-old females, SLC, Shizuoka, Japan) were used, an experiment method was briefly illustrated in FIG. 5A, and the design of experimental groups is shown in FIG. 5B.
(§2) 105 SD rats were purchased, and 21 days after STZ administration, only rats having uniform body weights ([…]) and blood sugar levels (257˜358 mg/dl) were selected. Among those, 8 rats per group were used in the experiment, and separate 8 rats were also prepared as the intact vehicle control (body weight: 200˜262 g; blood sugar level: 88˜100 mg/dl).
(§3) STZ was diluted with 50 mM citrate buffer (pH 6.0), and the resultant diluent was peritoneally administered once at a dose of 60 mg/kg/5 ml to induce diabetes, and in the intact vehicle control, instead of STZ, the same dose of citrate buffer was solely administered in the same route.
(1) Change in body weight: Body weight gains during diabetes induction and administration of a candidate material for 28 days

STZ-induced diabetes rat [2] = test: STZ-induced diabetes rats: antidiabetic effect (blood sugar, pancreas); format: in vivo, Sprague-Dawley (SD) rats; settings: vs STZ control, YMJHT 400 mg/kg
Description: as §1, §2, §3
(2) Antidiabetic effect: Change in blood sugar level, morphological change in pancreas tissue—changes in the number and diameter of pancreatic islets, and numerical changes in insulin and glucagon immunoreactive cells
(§4) To clarify degrees of inducing diabetes and diabetic complications, blood sugar levels was measured at 21 days after the STZ administration and 28 days after the administration of a candidate material, and then a difference between them was estimated. Also, to minimize a difference between organ weights depending on a body weight, an absolute weight was measured, and then a ratio to the body weight, that is, a relative weight, was calculated.

STZ-induced diabetes rat [3] = test: STZ-induced diabetes rats: liver protecting effect; format: in vivo, Sprague-Dawley (SD) rats; settings: vs STZ control; single treated: metformin 500 mg/kg, YMJHT 400 mg/kg; daily 28 days
Description: as §1, §2, §3
(3) Liver protecting effect: changes in the liver weight, blood AST and ALT contents, histopathological findings on the liver—(Degeneration rate of the liver: ratio of degenerated liver cells per mm^2 of hepatocyte, number of liver cells: number of liver cells observed per mm^2 of hepatocyte).
as §4

STZ-induced diabetes rat [4] = test: STZ-induced diabetes rats: kidney protecting effect; format: in vivo, Sprague-Dawley (SD) rats; settings: vs STZ control; single treated: metformin 500 mg/kg, YMJHT 400 mg/kg; daily 28 days
Description: as §1, §2, §3
(4) Kidney protecting effect: kidney weights, changes in blood BUN and creatinine, histopathological findings on kidney—numbers of degenerated renal tubules and glomeruli
as §4

STZ-induced diabetes rat [5] = test: STZ-induced diabetes rats: antihyperlipidemic effect; format: in vivo, Sprague-Dawley (SD) rats; settings: vs STZ control; single treated: metformin 500 mg/kg, YMJHT 400 mg/kg; daily 28 days
Description: as §1, §2, §3

STZ-induced diabetes rat [6] = test: STZ-induced diabetes rats: immune activity effect (thymus, spleen); format: in vivo, Sprague-Dawley (SD) rats; settings: vs STZ control; single treated: metformin 500 mg/kg, YMJHT 400 mg/kg; daily 28 days
Description: as §1, §2, §3
(6) Immune activity effect: thymus and spleen weights and histopathological findings—changes in spleen thickness, the number of white pulps and diameter, changes in thymus lobules and cortex thicknesses
as §4

STZ-induced diabetes rat [7] = test: STZ-induced diabetes rats: ocular protecting effect; format: in vivo, Sprague-Dawley (SD) rats; settings: vs STZ control; single treated: metformin 500 mg/kg, YMJHT 400 mg/kg; daily 28 days
Description: as §1, §2, §3

STZ-induced diabetes rat [8] = test: STZ-induced diabetes rats: antioxidative defense system in kidney; format: in vivo, Sprague-Dawley (SD) rats; settings: vs STZ control; single treated: metformin 500 mg/kg, YMJHT 400 mg/kg; daily 28 days
Description: as §1, §2, §3
(8) Change in antioxidative defense system in kidney: lipid peroxidation in kidney (nM of malondialdehyde (MDA)/g protein), endogenous antioxidant—glutathione (GSH) content (nM/g protein), antioxidant enzyme—Changes in catalase and superoxide dismutase (SOD) activities (U/mg protein)

in vivo = settings: male, SD, rat, plasma, po, 500 mg/kg
[9] = before administration, single treated groups: metformin 500 mg/kg
[10] = single treated: metformin 500 mg/kg, daily 28 days

SMILES: CN(C)C(=N)N=C(N)N [metformin]
- Body weight gains during the diabetes induction, change (STZ-induced diabetes rat [1]; [9]): 45.45%
- Body weight gains during the 28-day administration, change (STZ-induced diabetes rat [1]; [10]): 193.31%
- Blood sugar level at 21 days after the STZ administration, change (STZ-induced diabetes rat [2]; [9]): 1.68%
- Blood sugar level at 28 days after the STZ administration, change (STZ-induced diabetes rat [2]; [10]): −27.25%
- Blood sugar variation from 21 days after the STZ administration to 28 days after the administration of a candidate material, change (STZ-induced diabetes rat [2]; [10]): −59.39%
- Mean diameters of the pancreatic islets, change (STZ-induced diabetes rat [2]; [10]): 97.80%
- Numbers of insulin immunoreactive cells in the pancreatic islet, change (STZ-induced diabetes rat [2]; [10]): 202.99%
- Numbers of pancreatic islets per unit area, change (STZ-induced diabetes rat [2]; [10]): 120.93%
- Numbers of the glucagon immunoreactive cells in the pancreatic islet, change (STZ-induced diabetes rat [2]; [10]): −27.78%
- Pancreas absolute weights, change (STZ-induced diabetes rat [2]; [10]): 7.95%
- Relative pancreas weights with respect to the body weight, change (STZ-induced diabetes rat [2]; [10]): −7.49%
- Absolute weight of the liver, change (STZ-induced diabetes rat [3]): −14.38%
- Blood ALT content, change (STZ-induced diabetes rat [3]): −32.72%
- Blood AST content, change (STZ-induced diabetes rat [3]): −32.82%
- Hepatic degeneration rate, change (STZ-induced diabetes rat [3]): −29.61%
- Number of mean hepatocytes per unit area, change (STZ-induced diabetes rat [3]): 60.58%
- Relative weight of the liver, change (STZ-induced diabetes rat [3]): −27.69%
- Absolute weight of the kidney, change (STZ-induced diabetes rat [4]): −21.29%
- Blood BUN content, change (STZ-induced diabetes rat [4]): −31.69%
- Blood creatinine content, change (STZ-induced diabetes rat [4]): −31.29%
- Number of degenerated glomeruli, change (STZ-induced diabetes rat [4]): −36.94%
- Number of degenerated renal tubules, change (STZ-induced diabetes rat [4]): −29.90%
- Relative weight of the kidney, change (STZ-induced diabetes rat [4]): −32.41%
- Blood HDL content, change (STZ-induced diabetes rat [5]): 27.12%
- Blood LDL content, change (STZ-induced diabetes rat [5]): −29.08%
- Total cholesterol content in blood, change (STZ-induced diabetes rat [5]): −30.57%
- Triglyceride content in blood, change (STZ-induced diabetes rat [5]): −29.72%
- Absolute weight of the spleen, change (STZ-induced diabetes rat [6]): 31.35%
- Absolute weight of the thymus, change (STZ-induced diabetes rat [6]): 73.03%
- Mean diameter of the white pulp, change (STZ-induced diabetes rat [6]): 101.18%
- Number of white pulps per unit area (100 mm^2), change (STZ-induced diabetes rat [6]): 76.53%
- Relative weight of the spleen, change (STZ-induced diabetes rat [6]): 12.17%
- Relative weight of the thymus, change (STZ-induced diabetes rat [6]): 50.71%
- Total thickness of the spleen, change (STZ-induced diabetes rat [6]): 36.43%
- Total thickness of the thymus cortex, change (STZ-induced diabetes rat [6]): 78.00%
- Total thickness of the thymus lobules, change (STZ-induced diabetes rat [6]): 198.88%
- Lens damage score, change (STZ-induced diabetes rat [7]): −33.33%
- Number of blood vessels present in an internal limiting membrane, change (STZ-induced diabetes rat [7]): −44.55%
- Observer-based scores for cataract, change (STZ-induced diabetes rat [7]): −38.89%
- Quantitative image scores for cataract, change (STZ-induced diabetes rat [7]): −40.56%
- Thickness of the damaged part of the lens, change (STZ-induced diabetes rat [7]): −46.34%
- Thickness of the inner nuclear layer in the retina, change (STZ-induced diabetes rat [7]): 44.29%
- Thickness of the plexiform layer in the retina, change (STZ-induced diabetes rat [7]): 32.03%
- Total thickness of the retina, change (STZ-induced diabetes rat [7]): 33.45%
- Catalase activity in the renal tissue, change (STZ-induced diabetes rat [8]): 48.59%
- Content of the endogenous antioxidant in the renal tissue, GSH, change (STZ-induced diabetes rat [8]): 64.65%
- MDA content in the kidney tissue (lipid peroxidation indicator), change (STZ-induced diabetes rat [8]): −32.56%
- SOD activity in the renal tissue, change (STZ-induced diabetes rat [8]): 51.47%
- Cmax (in vivo): 20200 ± 3420 ng/mL
